# In patent publication US8486123B2, “Micro-organism-reducing device” (bredent medical GmbH & Co., KG, priority 2003, dated 2013):
# How the values were obtained:
# Gram positive bacteria = assay: in vitro reduction of Gram positive bacteria by methylene blue solutions; assay type: cell-based
# Excerpt: Methylene blue solutions reduce almost all Gram positive bacteria in a concentration of 25-44 μmol in vitro.
# [1] = penetration depth of MB solutions into normal oral mucosa; settings: after 10-min incubation time
# Excerpt: The clinical application of PDT is possible since the stain solutions selectively color cell systems, while the interaction with the epithelium is very limited. […] Furthermore, the life expectancy of the active radicals and their precursors is microseconds, so that it is practically assured that there are no concomitant destructive effects in healthy tissue due to diffusion, since there is not enough time for this.
# Gram negative germs = assay: complete reduction of Gram negative germs; assay type: cell-based; settings: compared with 25-44 μmol for Gram positive bacteria
# Excerpt: (§1) Completely reducing Gram negative germs requires 3-30 times higher concentrations. P. aeruginosa was reduced […] by 3.5 log10 CFU at a concentration of 200˜mol and an energy density of 100 mW/cm^2.
# colon tumors = settings: 20 μg/mL, intratumorally applied, without irradiation; cited from earlier work
# P. aeruginosa = assay: photodynamic reduction of P. aeruginosa; assay type: cell-based; settings: concentration of 200˜mol; energy density of 100 mW/cm^2
# Excerpt: as §1
# [2] = system: all examined microorganisms; assay: in vitro reduction of microorganisms by methylene blue solutions in culture medium; assay type: cell-based; settings: culture medium being used
# [3] = system: Gram positive and Gram negative bacteria; assay: dark toxicity of the stains for bacteria; assay type: cell-based; settings: TB compared with MB, without irradiation
# Description: The observed dark toxicity was higher for toluidine blue (TB) than for methylene blue (MB). This is consistent with the distribution coefficient P that was determined to be 0.33 for TB and 0.11 for MB.
# While dark toxicity for Gram positive bacteria was nearly unrelated to type, the dark toxicity for Gram negative bacteria is quite clearly a function of type and specifically corresponds to the trans-membrane permeability coefficient of the exterior membrane of Gram negative bacteria.
# Dark toxicity was a function of both the concentration and the incubation period prior to irradiation.
# [4] = distribution coefficient P; assay type: physicochemical
SMILES,concentration that reduces almost all Gram positive bacteria (Gram positive bacteria) [µmol],penetration depth into the epithelium [1],"concentration needed for completely reducing Gram negative germs, relative to Gram positive bacteria (Gram negative germs)",destruction of colon tumors by the substance alone (colon tumors),reduction of P. aeruginosa (P. aeruginosa) [log10 CFU],reduction of the number of microorganisms in the culture medium [2],observed dark toxicity [3],distribution coefficient P [4]
"CN(C)c1ccc2nc3ccc(=[N+](C)C)cc-3sc2c1 [Methylene blue, phenothiazin-5-ium, 3,7-bis(dimethylamino)-chloride]",25 to 44,1-2 exterior layers of cells,3-30 times higher,not destroyed,3.5,able to reduce the number of all examined microorganisms,,
"Cc1cc2nc3ccc(N(C)C)cc3[s+]c2cc1N.[Cl-] [TB, toluidine blue]",,,,,,,higher,0.33
